Measurements: patent publication US5463071A, “5-membered heterocyclic compounds, processes for preparing them and pharmaceutical compositions containing these compounds” (Dr. Karl Thomae GmbH, priority 1991, dated 1995)
Structures can show the parent of a compound that is named as a salt.

What was measured:
[1] = system: collagen-induced platelet aggregation in platelet-rich plasma; assay: Antithrombotic activity: inhibition of collagen-induced thrombocyte (platelet) aggregation, Born and Cross method; format: cell-based, healthy volunteers (human); settings: Homo sapiens, 10 minutes preincubation at 37° C.
Method: 2. Antithrombotic activity Method The thrombocyte aggregation is measured using the Born and Cross method (J. Physiol. 170: 397 (1964)) in platelet-rich plasma taken from healthy volunteers. To inhibit coagulation the blood is mixed with 3.14% sodium citrate in a ratio by volume of 1:10. Collagen-induced aggregation The pattern of the decrease in optical density of the platelet suspension is photometrically measured and recorded after the addition of the aggregation-triggering substance. The rate of aggregation is concluded from the angle of inclination of the density curve. The point on the curve where there is maximum light transmittance is used to calculate the optical density. The amount of collagen used is as small as possible but sufficient to produce an irreversible reaction curve. Standard commercial collagen produced by Hormonchemie of Munich is used. Before the addition of the collagen the plasma is incubated for 10 minutes with the substance at 37° C. From the measurements obtained an EC50 is determined graphically, indicating a 50% change in the optical density in terms of the inhibition of aggregation.

human thrombocytes = assay: Fibrinogen binding to human thrombocytes (125I fibrinogen, gel-filtered platelets); settings: ADP, 20 minutes at ambient temperature, read-out: Fibrinogen-binding test IC50
Method: 1. Fibrinogen binding to human thrombocytes The blood obtained by puncturing an antecubital vein is anticoagulated with trisodium citrate (final concentration: 13 mM) and centrifuged for 10 minutes at 170×g. The supernatant platelet-rich plasma is poured onto a Sepharose 2B column (Pharmacia) and eluted with a solution of 90 mM common salt, 14 mM trisodium citrate, 5 mM glucose and 50 mM Tris(hydroxymethyl)aminomethane, adjusted to pH 7.4. The gel-filtered platelets (GFP) appearing before the plasma proteins are used for the binding experiments. 50 μl of a 60 mM calcium chloride solution, 50 μl of a 0.6 mM adenosine diphosphate solution, 100 μl of substance solution or solvent and 50 μl of fibrinogen solution (containing 3 μg of ^125 I fibrinogen) are added to 750 μl of GFP and incubated for 20 minutes at ambient temperature. The non-specific binding is determined in the presence of 3 mg/ml of cold fibrinogen. 900 μof the incubated material are carefully pipetted onto 250 μof silicon oil (AP 38: AR 20, 1:2 v/v, Wacker Chemie) in Eppendorf tubes and centrifuged for 2 minutes at 10,000×g. The aqueous supernatant and part of the oil are drawn off, the tips of the tubes are cut off together with the platelet pellet and the quantity of bound fibrinogen is determined in a gamma counter. The concentration of substance which brings about a 50% inhibition in fibrinogen binding is determined from a series of concentrations and is given as the IC50 value.

[2] = Tolerance after intravenous administration to mice; format: in vivo; settings: 30 mg/kg intravenous, three mice each

SMILES	EC50 [1] [nM]	IC50 (human thrombocytes) [nM]	deaths after intravenous administration [2]
Cl.N=C(N)c1ccc(-c2ccc(-n3cnc(CC(N)C(=O)O)c3)nn2)cc1 (stereo not drawn) [1(2), 1-[6-(4-amidino-phenyl)-3-pyridazinyl]-4-(2-amino-2-carboxy-ethyl)-imidazole-hydrochloride]	90	18	no animals died
N=C(N)c1ccc(-c2c[nH]c(-c3ccc(CCC(=O)O)cc3)n2)cc1 [1(7), 4-(4-amidino-phenyl)-2-[4-(2-carboxy-ethyl)-phenyl]-imidazole]	580	210	
N=C(N)c1ccc(-c2n[nH]c(-c3ccc(CCC(=O)O)cc3)n2)cc1 [1(8), 3-(4-amidino-phenyl)-5-[4-(2-carboxy-ethyl)-phenyl]-1,2,4-triazole]	4100	460	
N=C(N)c1ccc(-c2nnc(-c3ccc(CCC(=O)O)cc3)o2)cc1 [1(9), 2-(4-amidino-phenyl)-5-[4-(2-carboxy-ethyl)-phenyl]-1,3,4-oxadiazole]	8500	4200	
N=C(N)c1ccc(-c2nnc(-c3ccc(CCC(=O)O)cc3)s2)cc1 [1(10), 2-(4-amidino-phenyl)-5-[4-(2-carboxy-ethyl)-phenyl]-1,3,4-thiadiazole]	9500	2000	
N=C(N)c1ccc(-c2ccc(-n3cnc(CC(C(=O)O)N(Cc4ccccc4)Cc4ccccc4)c3)nn2)cc1 (stereo not drawn) [1(35), 1-[6-(4-amidino-phenyl)-3-pyridazinyl]-4-(2-carboxy-2-dibenzylamino-ethyl)-imidazole]	6900	2400	
N=C(N)c1ccc(-c2ccc(-c3n[nH]c(SCC(=O)O)n3)cc2)cc1 [1(39), 3-(4-amidino-4'-biphenylyl)-5-carboxymethylthio-1,2,4-triazole]	3700	39	
COC(=O)c1cc(CCC(=O)O)oc1-c1ccc(-c2ccc(C(=N)N)cc2)cc1 [1(127), 2-(4-amidino-4'-biphenyl)-5-(2-carboxy-ethyl)-3-methoxycarbonyl-furan]	14000	2500	
N=C(N)c1ccc(-c2ccc(-c3oc(CCC(=O)O)cc3C(=O)O)cc2)cc1 [1(128), 2-(4-amidino-4'-biphenyl)-3-carboxy-5-(2-carboxy-ethyl)-furan]	9000	3500	
COC(=O)C(O)Cc1cn(-c2ccc(-c3ccc(C(=N)N)cc3)nn2)cn1 (stereo not drawn) [2(1), 1-[6-(4-amidino-phenyl)-3-pyridazinyl]-4-(2-hydroxy-2-methoxycarbonyl-ethyl)-imidazole]	180		
COC(=O)C(N)Cc1cn(-c2ccc(-c3ccc(C(=N)N)cc3)nn2)cn1 (stereo not drawn) [2(2), 1-[6-(4-amidino-phenyl)-3-pyridazinyl]-4-(2-amino-2-methoxycarbonyl-ethyl)-imidazole-tris-trifluoroacetate]	350	340	
COC(=O)CCn1nnc(-c2ccc(-c3ccc(C(=N)N)cc3)cc2)n1 [2(4), 5-(4-amidino-4'-biphenylyl)-2-(2-methoxycarbonyl-ethyl)-tetrazole-hydrochloride]	370	490	
COC(=O)CCc1ccc(-c2nc(-c3ccc(C(=N)N)cc3)c[nH]2)cc1 [2(7), 4-(4-amidino-phenyl)-2-[4-(2-methoxycarbonyl-ethyl)-phenyl]-imidazole-hydrochloride]	800	17000	
COC(=O)CCc1ccc(-c2nnc(-c3ccc(C(=N)N)cc3)s2)cc1 [2(10), 2-(4-amidino-phenyl)-5-[4-(2-methoxycarbonyl-ethyl)-phenyl]-1,3,4-thiadiazole]	220		
COC(=O)CCc1nnc(-c2ccc(-c3ccc(C(=N)N)cc3)cc2)s1 [2(20), 2-(4-amidino-4'-biphenylyl)-5-(2-methoxycarbonyl-ethyl)-1,3,4-thiadiazole]	280	4900	
COC(=O)CCc1cn(-c2ccc(-c3ccc(C(=N)N)cc3)nn2)c2ccccc12 [2(37), 1-[6-(4-amidino-phenyl)-3-pyridazinyl]-3-(2-methoxycarbonyl-ethyl)-indole]	6100	6200	
COC(=O)CCc1ccc(-c2nc(-c3ccc(C(=N)NC(=O)OC)cc3)cn2C)cc1 [4(1), 4-(4-methoxycarbonylamidino-phenyl)-2-[4-(2-methoxycarbonyl-ethyl)-phenyl]-1-methyl-imidazole]		1500	
COC(=O)CCc1ccc(-c2nc(-c3ccc(C(=N)NC(=O)OC)cc3)c[nH]2)cc1 [4(2), 4-(4-methoxycarbonylamidino-phenyl)-2-[4-(2-methoxycarbonyl-ethyl)-phenyl]-imidazole]		1800	
N=C(N)c1ccc(-c2ccc(-n3cnc(CCC(=O)O)c3)nn2)cc1 [Example 1]	130	73	no animals died

Now from value to compound, other results behind:

EC50 [1] [nM]	IC50 (human thrombocytes) [nM]	SMILES	deaths after intravenous administration [2]
90	38	N=C(N)c1ccc(-c2ccc(-n3cnc(CC(O)C(=O)O)c3)nn2)cc1 (stereo not drawn) [1(1), 1-[-6-(4-amidinophenyl)-3-pyridazinyl]-4-(2-carboxy-2-hydroxy-ethyl)-imidazole]	
11000	220	N=C(N)c1ccc(-c2nnn(-c3ccc(CCC(=O)O)cc3)n2)cc1 [1(3), 5-(4-amidino-phenyl)-2-[4-(2-carboxy-ethyl)-phenyl]-tetrazole]	
290	44	N=C(N)c1ccc(-c2ccc(-c3nnn(CCC(=O)O)n3)cc2)cc1 [1(4), 5-(4-amidino-4'-biphenylyl)-2-(2-carboxy-ethyl)-tetrazole]	
90	25	Cn1cc(-c2ccc(C(=N)N)cc2)nc1-c1ccc(CCC(=O)O)cc1 [1(6), 4-(4-amidino-phenyl)-2-[4-(2-carboxy-ethyl)-phenyl]-1-methyl-imidazole]	
290	65	N=C(N)c1ccc(-c2ccc(-c3nnc(CCC(=O)O)s3)cc2)cc1 [1(20), 2-(4-amidino-4'-biphenylyl)-5-(2-carboxy-ethyl)-1,3,4-thiadiazole]	
2400	150	N=C(N)c1ccc(-c2ccc(-n3cc(CCC(=O)O)c4ccccc43)nn2)cc1 [1(37), 1-[6-(4-amidino-phenyl)-3-pyridazinyl]-3-(2-carboxy-ethyl)-indole]	
510	460	NCc1ccc(-c2ccc(-n3cnc(CC(N)C(=O)O)c3)nn2)cc1 (stereo not drawn) [1(134), 4-(2-amino-2-carboxy-ethyl)-1-[6-(4-aminomethyl-phenyl)-3-pyridazinyl]-imidazole-dihydrochloride]	
1600	140	COC(=O)CCc1ccc(-n2nnc(-c3ccc(C(=N)N)cc3)n2)cc1 [2(3), 5-(4-amidino-phenyl)-2-[4-(2-methoxycarbonyl-ethyl)-phenyl]-tetrazole-hydrochloride]	
7500	3100	COC(=O)CCc1ccc(-c2nc(-c3ccc(C(=N)N)cc3)cs2)cc1 [2(5), 4-(4-amidino-phenyl)-2-[4-(2-methoxycarbonyl-ethyl)-phenyl]-thiazole-hydrochloride]	
210	4300	COC(=O)CCc1ccc(-c2nc(-c3ccc(C(=N)N)cc3)cn2C)cc1 [2(6), 4-(4-amidino-phenyl)-2-[4-(2-methoxycarbonyl-ethyl)-phenyl]-1-methyl-imidazole-hydrochloride]	
6400	44000	COC(=O)CCc1ccc(-c2nc(-c3ccc(C(=N)N)cc3)n[nH]2)cc1 [2(8), 3-(4-amidino-phenyl)-5-[4-(2-methoxycarbonyl-ethyl)-phenyl]-1,2,4-triazole]	
5400		COC(=O)CSc1nc(-c2ccc(-c3ccc(C(=N)N)cc3)cc2)n[nH]1 [2(39), 3-(4-amidino-4'-biphenylyl)-5-methoxycarbonyl-methylthio-1,2,4-triazole]	
22000	1400	COC(=O)CCc1cc(C(=O)OC)c(-c2ccc(-c3ccc(C(=N)N)cc3)cc2)o1 [2(126), 2-(4-amidino-4'-biphenylyl)-3-methoxycarbonyl-5-(2-methoxycarbonyl-ethyl)-furan-hydrochloride]	
2200	510	COC(=O)CCc1cn(-c2ccc(-c3ccc(C(=N)N)cc3)nn2)cn1 [Example 2, 1-[6-(4-Amidino-phenyl)-3-pyridazinyl]-4-(2-methoxy-carbonyl-ethyl)-imidazole]	
